From PMC10035904, “Synthesis of novel sulphamethoxazole derivatives and exploration of their anticancer and antimicrobial properties” (PLOS ONE, 2023) come the findings set out here.

Values after ≈ are worked out from the molar mass of the structure shown.

For series [1], the system named is Pseudomonas aeruginosa ATCC 27853. In words: Serial dilution on solid agar, P. aeruginosa. The class given is cell-based. Conditions: ATCC27853, solid Mueller-Hinton agar, 24 hours. The method, then:
(§1) Antimicrobial activity of compound 16b on solid agar was tested using the same microbial cultures, and the same suspension preparation procedure, as described in above section. All procedures were done in aseptic conditions.
(§2) Mueller-Hinton agar was boiled and kept at to 37 °C during the whole procedure. Compound 16b solution was prepared in DMSO right before experiment. The Agar was mixed with compound solution at different ratios to make the final compound concentrations of 1 mM, 400 μM, 200 μM and 100 μM. Then 10 ml of prepared solution was poured into sterile Petri dishes (85 mm in diameter) and kept in aseptic conditions while the agar solidified. The agar with 0.5% of DMSO served as a negative control. With the help of loop standard microbial cultures by 0.1 ml were poured on the surface of prepared agar with investigative compound. Then Petri dishes were kept for 24 hours in thermostatic conditions.
(§3) The minimal dilution, i.e. the lowest concentration in μg/mL of the investigative and comparison compounds that inhibited visible growth of microorganisms was the minimal inhibitory concentration (MIC).

Series [2] deals with Proteus mirabilis ATCC 12459. The experiment in a line: Serial dilution on solid agar, P. mirabilis. The format is cell-based. The following applies: ATCC12459, solid Mueller-Hinton agar, 24 hours. As for the experimental part:
as §1, §2, §3

Series [3] has as its system Human foreskin fibroblasts (HF) CRL-4001. In words: MTT cell viability assay, fibroblasts HF. Conditions: Fibroblast, 72 hours of incubation, n = 3, read-out: EC50 against HF. The class given is cell-based. The method, then: (§4) The human clear cell renal cell carcinoma line (CaKi-1) was obtained from American Type Culture Collection (ATCC, Manassas, VA). The human prostate carcinoma cell line PPC-1 was originally obtained from ATCC and kindly provided by Prof. Tambet Teesalu (University of Tartu, Estonia). Human foreskin fibroblasts (HF) CRL-4001 were originally obtained from ATCC and kindly provided by Prof. Helder Santos (University of Helsinki, Finland). Cells were cultured in Dulbecco’s Modified Eagle’s GlutaMAX medium (Gibco (Carlsbad, CA, USA) supplemented with 10,000 U/mL penicillin, 10 mg/mL streptomycin (Gibco), and 10% fetal bovine serum (Gibco). During cell passaging, Tryple Express reagent (Gibco) was used for cell detachment. Cell cultures were grown at 37°C in a humidified atmosphere containing 5% CO2. They were used until the passage of 20.
(§5) The effect of synthesized compounds on cell viability was studied using 3-(4,5-dimethylthiazol-2-yl)-2,5-diphenyltetrazolium bromide (MTT; Sigma-Aldrich Co., St Louis, MO, USA) assay, as described elsewhere. […] The absorbance was measured at 570 and 630 nm using a multi-detection microplate reader. The compound effect on cell viability was calculated using a formula (1): Relativecellviability%=A−A0/ANC−A0 (1) Where: […]
In general terms: Formazan colour is commonly taken as a measure of viable cells.

The subject of series [4] is human clear cell renal cell carcinoma line (CaKi-1). In words: MTT cell viability assay, CaKi-1. Conditions: 72 hours of incubation, n = 3, read-out: EC50 against CaKi-1. The format is cell-based. As for the experimental part: as §4, §5
The subject of series [5] is human prostate carcinoma cell line PPC-1. In words: MTT cell viability assay, PPC-1. The format is cell-based. The following applies: 72 hours of incubation, n = 3, read-out: EC50 against PPC-1. The method, then:
as §4, §5

The subject of series [6] is Enterococcus faecalis ATCC 29212. The experiment in a line: Serial dilution on solid agar, E. faecalis. The class given is cell-based. The following applies: ATCC29212, solid Mueller-Hinton agar, 24 hours. The method, then:
as §1, §2, §3

The test system of series [7] is Bacillus cereus ATCC 8035. In words: Serial dilution on solid agar, B. cereus. The format is cell-based. The following applies: ATCC8035, solid Mueller-Hinton agar, 24 hours. As for the experimental part:
as §1, §2, §3

In series [8] the test system is Candida albicans ATCC 60193. The experiment in a line: Serial dilution on solid agar, C. albicans. The class given is cell-based. Conditions: ATCC60193, solid Mueller-Hinton agar, 24 hours. The method, then:
as §1, §2, §3

In series [9] the test system is Staphylococcus aureus ATCC 25923. The experiment in a line: Serial broth dilution in liquid medium, S. aureus. The format is cell-based. Conditions: Mueller-Hinton broth, 24 hours; result in words. As for the experimental part:
Antibacterial and antifungal susceptibility to the compound 16b was tested using a serial broth dilution technique in Mueller-Hinton broth II (BBL, Cockeysville, USA), as described elsewhere. All procedures were done in aseptic conditions. Standard bacterial and fungal cultures were used: Staphylococcus aureus ATCC 25923, Staphylococcus epidermidis ATCC 12228, Escherichia coli ATCC 25922, Enterococcus faecalis ATCC 29212, Klebsiella pneumoniae ATCC 33499, Pseudomonas aeruginosa ATCC 27853, Proteus mirabilis ATCC 12459, Bacillus cereus ATCC 8035, and Candida albicans ATCC 60193. Standard cultures of nonsporic bacteria S. aureus, S. epidermidis, E. coli, E. faecalis, K. pneumoniae, P. aeruginosa and P. mirabilis were cultivated for 20–24 hours at 37°C in Mueller-Hinton Agar (BBL, Cockeysville, USA). A bacterial suspension was prepared from cultivated bacterial cultures in physiological solution according to turbidity standard 0.5 McFarland. Standard culture of sporic bacteria B. cereus was cultivated for 7 days at 37°C in Mueller-Hinton II Agar. […] Then the absorbance was measured at 600 nm using a multi-detection microplate reader. […]
Background: In broth dilution the organism is exposed to a series of concentrations in liquid medium.

As to `Cc1cc(NS(=O)(=O)c2ccc(NCCC(=O)NN=Cc3ccc([N+](=O)[O-])o3)cc2)no1` [Compound 16b, N-(5-methylisoxazol-3-yl)-4-((3-(2-((5-nitrofuran-2-yl)methylene)hydrazineyl)-3-oxopropyl)amino)-benzenesulfonamide], the melting point was 221 to 222 °C. This compound returned an MIC in series [1] above 1000 µM. Besides, the minimal inhibitory concentration (MIC) in series [2] was 1000 µM (≈ 462 µg/mL). Further, in series [3], the EC50 amounted to 9.5 ± 2.7 µM. For the same compound, the EC50 in [4] was determined as 12.4 ± 1.6 µM. Besides, in [5], the half-maximal effective concentration (EC50) was determined as 10.4 ± 3 µM. Further, the MIC in series [6] amounted to 1000 µM (≈ 462 µg/mL). The minimum inhibitory concentration (MIC) in [7] turned out to be 400 µM (≈ 185 µg/mL). In series [8], this compound displayed an MIC of 400 µM (≈ 185 µg/mL). In addition, the “sensitivity of S. aureus in liquid medium” value in [9] was “most sensitive”.

By MIC is commonly meant the smallest concentration in the dilution series that meets the test's criterion for growth inhibition. Read a high MIC as a less susceptible organism. A word on the EC50: it is the concentration needed to bring the measured effect to its halfway point. In general, melting point refers to the temperature of the solid-liquid transition.
